We go through three compounds from patent US11254671B2, “Chemical compounds” (GLAXOSMITHKLINE INTELLECTUAL PROPERTY DEVELOPMENT LIMITED, priority 2017, dated 2022).

“And” between values parts separate entries of the source, which are not always exact repeats. Equal values may be shown once.

One assay has as its target T1, mTOR (Homo sapiens, UniProt P42345).
T1 construct: capturing of endogenously expressed target proteins from cell extracts by a bead-immobilized capturing ligand; endogenous in cells; host or cells: HuT-78 cells (ECACC 88041901), cell lysate
In words: mTOR kinobeads assay (competition-binding assay). To be noted: HuT-78 cell extract, endogenously expressed mTOR, bead-immobilized capturing ligand; mean of multiple experiments; read-out: mean pIC50, affinity for mTOR (converted). As for the experimental part: The affinity of test compounds for mTOR was determined in the mTOR kinobeads assay. This is a competition-binding assay based on the capturing of endogenously expressed target proteins from cell extracts by a bead-immobilized capturing ligand in presence of the test compound.
HuT-78 cells (European Collection of Authenticated Cell Cultures, 88041901) were cultured according to vendor's instructions. Frozen cell pellets were homogenized in 3× pellet volumes lysis buffer (50 mM Tris-HCl, 0.4% (v/v) Igepal-CA630, 5% glycerol, 150 mM NaCl, 1.5 mMMgCl2, 25 mM NaF, 1 mM sodium vanadate, 1 mM DTT, pH 7.5, supplemented with EDTA-free protease inhibitor tablet (Roche)). The sample was dispersed using a Dounce homogenizer, kept rotating for 30 min at 4° C., and centrifuged for 10 min at 20 000 g at 4° C. The supernatant was centrifuged again for 1 h at 145 000 g. The protein concentration was determined by Bradford assay (BioRad), aliquots were snap frozen in liquid nitrogen and stored at −80° C.
The capturing matrices were generated by derivatizing N-hydroxysuccinimide (NHS) activated Sepharose 4 beads (GE Healthcare) with the functionalized ligands Compound A and Compound C at a ligand density of 5 mM. Remaining NHS-groups were blocked with ethanolamine.
For the mTOR kinobeads assay the matrices were combined in a 1:1 ratio and equilibrated in DP buffer (50 mM Tris-HCl (pH 7.5), 0.4% (v/v) Igepal-CA630, 5% (v/v) glycerol, 150 mM NaCl, 1.5 mM MgCl2, 25 mM NaF, 1 mM Na3VO4, 1 mM dithiothreitol). All steps of the mTOR kinobeads assay were performed at 4° C. or on ice. The cell lysate was diluted with DP buffer to a final concentration of 5 mg/ml and a final detergent concentration of 0.4% (v/v) Igepal-CA630. For the assay 250 μg cell lysate and 2.5 μl capturing matrix per well (final assay volume: 75 μl) were incubated in the presence of test compounds in a 384-well filter plate (MultiScreenHTS HV Filter Plate, 0.45 μm, MZHVNOW50, Merck Millipore). Each plate contained 16 positive (100 μM Compound B) and 16 negative (2% v/v DMSO) control wells. Compounds were tested in a concentration-response applying 1:3 or 1:4 dilution steps for in total 11 data points. DMSO concentration was 2% (v/v). After 2 h incubation on an overhead shaker (Roto-Shake Genie, Scientific Industries Inc.) at 4° C. the non-bound fraction was removed by washing the beads with DP buffer. Proteins retained on the beads were eluted in SDS sample buffer (200 mM Tris (pH 7.4), 250 mM Trizma Base, 4% (w/v) SDS, 20% (v/v) glycerol, 0.01% (w/v) bromophenol blue, 50 mM dithiothreitol) into a collection plate (384 well polypropylene microplate, V-shape, Greiner, 781 280). Eluates were spotted on nitrocellulose membranes (400 nl per spot) using an automated pin-tool liquid transfer (Biomek FX, Beckman). After drying, the membranes were rehydrated in 20% (v/v) ethanol and blocked by incubation with Odyssey blocking buffer (LICOR, 927-40000) for 1 h at room temperature. Blocked membranes were incubated overnight at 25° C. with Odyssey blocking buffer supplemented with a specific anti-mTOR antibody (Cell Signaling, 2972; 1:500) and 0.4% TWEEN-20. Then the membranes were washed in PBST buffer and incubated for 60 minutes at room temperature with the detection antibody (IRDye™ labelled antibody from LI-COR) diluted in Odyssey blocking buffer (LICOR 927-40000) containing 0.2% TWEEN-20. Then the membranes were washed with PBST and finally rinsed twice with PBS buffer to remove residual Tween-20. The membranes were then scanned with the Odyssey® Infrared Imaging System (LI-COR Biosciences). Fluorescence signals were recorded and analyzed according to the instructions of the manufacturer. Concentration response curves were computed with the software Activity Base. All data were normalized to the mean of 16 high (negative control) and 16 low (positive control) control wells on each plate. […]

The test system of assay [1] is phosphorylated Akt at serine 473 (pAKTs473) in primary human lung fibroblasts. In words: Highthroughput phosphorylated Akt (Ser473) in vitro immunoassay (MSD). The format is cell-based. To be noted: Fibroblast, 1 h compound, PDGF-BB 10 ng/ml for 10 min, mean of multiple experiments, read-out: mean pIC50, inhibition of pAkt (Ser473) (converted). The text has this:
Highthroughput Phosphorylated Akt (Ser473) In Vitro Immunoassay
Immunoassay to measure effect of test compounds on phosphorylated Akt at serine 473 (pAKTs473) in primary human lung fibroblasts (Lonza Group Ltd, Basel, Switzerland, Catalogue No. CC-2512) using the MesoScale Discovery (MSD) platform to quantify levels of total Akt and pAKTser473.
Human lung fibroblasts were routinely maintained in fibroblast basal medium supplemented with 2% foetal bovine serum (FBS), 0.1% human fibroblast growth factor (FGF)-B, 0.1% insulin, 0.1% GA-100 (Lonza Group Ltd, Basel, Switzerland, Catalogue No. CC-3132) at 37° C. in 5% CO2 according to the manufacturer's protocol.
For the assay, cells were harvested using Trypsin/EDTA, (Lonza Group Ltd, Basel, Switzerland, Catalogue No. CC-5012), at working concentration of 0.025%, resuspended to give 3×10^5 cells/ml and 50 ul/well seeded into 384-well plates (Greiner Group, Kremsmunster, Austria, Catalogue No. 781091) in media containing 0.4% FBS and incubated o/n at 37° C. in 5% CO2.
Test compounds were dissolved in 100% DMSO to give 10 mM stock solutions and serially diluted to generate an 11-point concentration response curve. Compound were further diluted by […] into 384-well V-bottom polypropylene plates (Greiner Group, Kremsmunster, Austria, Catalogue No. 781280) with media containing 0.4% FBS to give 50 μM top compound concentration in 0.5% DMSO.
Compounds were transferred to 384-well plates contacting cells (0.1% DMSO final) and incubated for 1 h at 37° C. in 5% CO2, prior to stimulation with platelet-derived growth factor (PDGF)-BB (R&D Systems, Catalogue No. 220-BB) at 10 ng/ml (final) for 10 min at RT. Cell assay plates were incubated on ice and treated with lysis buffer (Cell Signalling Technology, Catalogue No. 9806) containing protease and phosphatase inhibitors (Thermo Scientific, Catalogue No. 78444) followed by shaking for 30 min at 4° C.
MSD plates (MSD, MA6000 384-well GAR plate, Catalogue No. L21RA-2) were blocked with blocking buffer containing TBS (MSD, Cat. No. R61TX-1) with 0.5% bovine serum albumin (BSA) (Sigma Aldrich, Cat. No. A7906), 0.1% tween-20 (Sigma Aldrich, Catalogue No. P2287) and coated with rabbit-anti-human pAkt (s473) ab (Cell Signalling Technology, Catalogue No. CST #4060) at RT with shaking, followed by washing (×3) with 1×TBS wash reagent containing 0.1% Tween-20. Cell lysates (30 ul) were added and MSD plates centrifuged at 1000 rpm at 4° C. o/n.
Plates were washed with 1×TBS wash buffer (×3), prior to addition of mouse-anti-human-total Akt ab (1 mg/ml) (Upstate (Milipore), Catalogue No. 05-591) in blocking buffer and shaken at RT for 1 h. After washing with 1×TBS wash buffer (×3), plates were incubated with goat-anti-mouse SULFO-TAG detection ab (MSD, Catalogue No. R32AC-1) (1:500 in blocking buffer) for 1 h at RT. Plates were washed with 1×TBS (×3) and read buffer (2×) (MSD, Catalogue No. R92TC-1) added before detecting electrochemiluminescence (MSD Sector Imager 6000).
Data analysis was performed by determining % inhibition values for test compounds relative to the minimum (+PDGF-BB stimulation) and maximum responses (no PDGF-BB stimulation) with non-linear regression analysis to determine IC50 values for test compounds.

For assay [2], the system named is type I collagen deposition in primary lung fibroblasts. In words: Highthroughput type I collagen deposition (scar-in-a-jar) high content screening assay. It is filed as cell-based. To be noted: Homo sapiens, Primary lung fibroblast, 72 h, human pulmonary fibroblasts, TGF-β 1 ng/ml, Ficoll crowding, mean of multiple experiments, read-out: mean pIC50, inhibition of type I collagen deposition (converted). As for the experimental part: Example 53 Highthroughput Type I Collagen Deposition (Scar-in-a-Jar) High Content Screening Assay
Highthroughput, cellular type I collagen deposition was measured by adapting a published method; scar-in-a-jar (Chen et al., 2009) to primary lung fibroblasts derived from human tissue and combining with high content analysis to permit fluorescent quantification of collagen deposited in the extracellular matrix (ECM). The human biological samples were sourced ethically and their research use was in accord with the terms of the informed consents
Test compounds were dissolved in 100% DMSO to give 10 mM (stocks) and further diluted to give half log dilutions to generate an 11 point concentration response curve. 1 ul was transferred to 384-well plates (Greiner Group, Kremsmunster, Austria, Catalogue No Greine 781280r).
Human pulmonary fibroblasts were maintained in DMEM media (Gibco, Catalogue No 21969) supplemented with 4 mM L-glutamine (Gibco Catalogue No 25030-024) and 10% heat inactivated FBS (Gibco, Catalogue No 10099-141) at 37° C. in 10% CO2. Cells were harvested and resuspended at 4×10^6 cells/ml in a T175 cell culture flask (BD Falcom, Catalogue No: 353112) containing 50 mL of culture media. After 4 days 37° C. in 10% CO2, cells were harvested and seeded at 4000 cells per well (50 μL/well) into 384-well plates (BD Falcon, Catalogue No 353962Greiner) in assay media (0.4% heat inactivated FBS, 4 mM L-glutamine). Plates were sealed with breathable seals (Sigma, Catalogue No. BEM-1). Assay plates were incubated for 72 h at 37° C. in 10% CO2.
Assay media was supplemented with 112.5 mg/ml Ficoll 70 (Sigma, Catalogue No F2878), 75 mg/ml Ficoll 400 (Sigma, Catalogue No F4375) and 50 μg/ml ascorbic acid (Sigma, Catalogue No A8960). 30 μL assay media were added to 1 μl compound (37 μM compound concentration in 1% DMSO). Diluted compounds (10 μL) were transferred to plates containing cells and incubated for 3 h at 37° C. in 10% CO2. Transforming growth factor (TGF)-β (R&D systems, Catalogue No 100-B/CF) was reconstituted to give 10 μg/mL (stock) and further diluted in assay media containing Ficoll and ascorbic acid (1 in 3333). TGF-β was added to cell plates (1 ng/ml final) and cells incubated for 72 h at 37° C. in 10% CO2.
Media was aspirated from cells and 30 μL/well 100% ice-cold methanol added and incubated at RT for 5 min to fix cells. Methanol was aspirated and cells washed with PBS (3×). To block and permeabilise, cells were incubated with PBS containing 1% BSA and 0.1% Triton X 100 for 20 min, followed by PBS wash (3×). Cells were incubated with mouse anti human type I collagen monoclonal antibody (Sigma, Catalogue No C2456) diluted 1:1000 in PBS for 24 h at 4° C. Cells were washed with PBS containing 0.1% Tween-20 (3×) and incubated with secondary alexa fluor 488 goat-anti-mouse antibody (Invitrogen, Catalogue No A11001, 1 in 500 in PBS) and Hoechst 33342 (Sigma, Catalogue No H21492), 1 in 1000 in PBS) for 1 h at RT, prior to washing with PBS containing 0.1% Tween (×4).
Type I collagen immunoreactivity was detected using the INCell 2000 Analyzer (GE Healthcare, INcell 2000) set to excitation and emission wavelengths for DAPI and FITC with laser focus and exposure adjusted to appropriate levels. Images were imported and analysed using Columbus software (Perkin Elmer) and computational algorithms to quantify “total collagen area” and “cell count”.
Data analysis was performed by determining % inhibition values for test compounds relative to the minimum (media only) and maximum responses (TGF-βstimulation) with non-linear regression analysis to determine IC50 values for test compounds.

Regarding `CNCc1cc2nc(-c3cc(C4(S(C)(=O)=O)CCOCC4)cc(N4CC5CCC(C4)O5)n3)ccc2[nH]1` [Example 37, ({5-[4-(4-methanesulfonyloxan-4-yl)-6-{8-oxa-3-azabicyclo[3.2.1]octan-3-yl}pyridin-2-yl]-1H-pyrrolo[3,2-b]pyridin-2-yl}methyl)(methyl)amine], the IC50 at mTOR is 2.51 to 31.6 nM and 2.51 to 316 nM; in assay [1], 3.16 to 316 nM.
For `CC[C@H]1COCCN1c1cc(CS(N)(=O)=O)cc(-c2ccc3[nH]c(CNC)cc3n2)n1` [Example 29, {2-[(3S)-3-ethylmorpholin-4-yl]-6-{2-[(methylamino)methyl]-1H-pyrrolo[3,2-b]pyridin-5-yl}pyridin-4-yl}methanesulfonamide], the IC50 was 2.51 to 31.6 nM and 2.51 to 316 nM on mTOR; 3.16 to 316 nM in assay [1].
Consider `CCCC1COCCN1c1cc(CS(C)(=O)=O)cc(-c2ccc3[nH]c(CNC)cc3n2)n1` (stereo not drawn) [Example 48, ({5-[4-(methanesulfonylmethyl)-6-(3-propylmorpholin-4-yl)pyridin-2-yl]-1H-pyrrolo[3,2-b]pyridin-2-yl}methyl)(methyl)amine], for which the IC50 in assay [1] is 3.16 to 316 nM; in assay [2], 39.8 to 1000 nM.
